# According to PubChem BioAssay (NCI):
#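 These data come from cells grown in 96-well plates and exposed to compound for 48 hours at five concentrations. At the GI50, growth is halved. TGI: concentration producing complete growth inhibition.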
# Key:
# Experiment in all cases: growth of human tumour cells (NCI), 48 h
# EKVX NSCLC = test system: EKVX NSCLC
# UACC-62 melanoma = test system: UACC-62 melanoma
# MDA-MB-435 = test system: MDA-MB-435
# UACC-257 melanoma = test system: UACC-257 melanoma
# NCI-H226 lung = test system: NCI-H226 lung
# CAKI-1 renal = test system: CAKI-1 renal
# KM12 colon = test system: KM12 colon
# SNB-75 CNS = test system: SNB-75 CNS
# ACHN renal = test system: ACHN renal
# SW-620 colon = test system: SW-620 colon
# HT29 colon = test system: HT29 colon
# HCC-2998 colon = test system: HCC-2998 colon
# SK-OV-3 ovarian = test system: SK-OV-3 ovarian
# OVCAR-3 ovarian = test system: OVCAR-3 ovarian
# OVCAR-8 ovarian = test system: OVCAR-8 ovarian
# K-562 leukemia = test system: K-562 leukemia
# SR leukemia = test system: SR leukemia
# COLO 205 colon = test system: COLO 205 colon
# SK-MEL-28 melanoma = test system: SK-MEL-28 melanoma
# A549 NSCLC = test system: A549 NSCLC
# HS 578T breast = test system: HS 578T breast
# SF-295 CNS = test system: SF-295 CNS
# IGROV1 ovarian = test system: IGROV1 ovarian
# OVCAR-5 ovarian = test system: OVCAR-5 ovarian
# NCI-H23 lung = test system: NCI-H23 lung
# MDA-MB-468 breast = test system: MDA-MB-468 breast
# MCF7 breast = test system: MCF7 breast
# NCI-H522 lung = test system: NCI-H522 lung
# SN12C renal = test system: SN12C renal
# RXF 393 renal = test system: RXF 393 renal
# UO-31 renal = test system: UO-31 renal
# U251 CNS = test system: U251 CNS
# MALME-3M melanoma = test system: MALME-3M melanoma
# HOP-62 NSCLC = test system: HOP-62 NSCLC
# HOP-92 NSCLC = test system: HOP-92 NSCLC
# SK-MEL-5 melanoma = test system: SK-MEL-5 melanoma
# MOLT-4 leukemia = test system: MOLT-4 leukemia
# NCI-H460 lung = test system: NCI-H460 lung
# M14 melanoma = test system: M14 melanoma
# SK-MEL-2 melanoma = test system: SK-MEL-2 melanoma
# DU-145 prostate = test system: DU-145 prostate
# LOX IMVI melanoma = test system: LOX IMVI melanoma
# PC-3 prostate = test system: PC-3 prostate
# HCT-15 colon = test system: HCT-15 colon
# BT-549 breast = test system: BT-549 breast
# SF-268 CNS = test system: SF-268 CNS
# SF-539 CNS = test system: SF-539 CNS
# SNB-19 CNS = test system: SNB-19 CNS
# T-47D breast = test system: T-47D breast
# HL-60(TB) leukemia = test system: HL-60(TB) leukemia
# OVCAR-4 ovarian = test system: OVCAR-4 ovarian
# RPMI-8226 leukemia = test system: RPMI-8226 leukemia
# 786-0 renal = test system: 786-0 renal
# CCRF-CEM leukemia = test system: CCRF-CEM leukemia
# MDA-MB-231 breast = test system: MDA-MB-231 breast
# HCT-116 colon = test system: HCT-116 colon
# A498 renal = test system: A498 renal
# TK-10 renal = test system: TK-10 renal
smiles,measurement,setting,value
O=C1NC(=NC2CCCCCC2)N/C1=C\c1ccc2ncoc2c1,GI50,EKVX NSCLC,8.68 µM
same,TGI,EKVX NSCLC,49.4 µM
same,GI50,UACC-62 melanoma,2.74 µM
same,TGI,UACC-62 melanoma,12 µM
same,GI50,MDA-MB-435,6.27 µM
same,TGI,MDA-MB-435,21.4 µM
same,GI50,UACC-257 melanoma,5.95 µM
same,TGI,UACC-257 melanoma,23 µM
same,GI50,NCI-H226 lung,2.63 µM
same,TGI,NCI-H226 lung,> 100 µM
same,GI50,CAKI-1 renal,2.61 µM
same,TGI,CAKI-1 renal,12.9 µM
same,GI50,KM12 colon,3.83 µM
same,TGI,KM12 colon,19.1 µM
same,GI50,SNB-75 CNS,0.757 µM
same,TGI,SNB-75 CNS,12.3 µM
same,GI50,ACHN renal,2.68 µM
same,TGI,ACHN renal,10.1 µM
same,GI50,SW-620 colon,3.27 µM
same,TGI,SW-620 colon,18.9 µM
same,GI50,HT29 colon,9.36 µM
same,TGI,HT29 colon,37.8 µM
same,GI50,HCC-2998 colon,12.3 µM
same,TGI,HCC-2998 colon,27.6 µM
same,GI50,SK-OV-3 ovarian,2.71 µM
same,TGI,SK-OV-3 ovarian,62.9 µM
same,GI50,OVCAR-3 ovarian,2.13 µM
same,TGI,OVCAR-3 ovarian,9.17 µM
same,GI50,OVCAR-8 ovarian,3.55 µM
same,TGI,OVCAR-8 ovarian,18 µM
same,GI50,K-562 leukemia,4.97 µM
same,TGI,K-562 leukemia,37.2 µM
same,GI50,SR leukemia,1.97 µM
same,TGI,SR leukemia,8.09 µM
same,GI50,COLO 205 colon,3.14 µM
same,TGI,COLO 205 colon,14.2 µM
same,GI50,SK-MEL-28 melanoma,3.5 µM
same,TGI,SK-MEL-28 melanoma,14.1 µM
same,GI50,A549 NSCLC,3.01 µM
same,TGI,A549 NSCLC,32.1 µM
same,GI50,HS 578T breast,2.87 µM
same,TGI,HS 578T breast,26.5 µM
same,GI50,SF-295 CNS,7.52 µM
same,TGI,SF-295 CNS,> 100 µM
same,GI50,IGROV1 ovarian,4.35 µM
same,TGI,IGROV1 ovarian,34.1 µM
same,GI50,OVCAR-5 ovarian,4.33 µM
same,TGI,OVCAR-5 ovarian,68.4 µM
same,GI50,NCI-H23 lung,3.16 µM
same,TGI,NCI-H23 lung,18.7 µM
same,GI50,MDA-MB-468 breast,2.44 µM
same,TGI,MDA-MB-468 breast,12.6 µM
same,GI50,MCF7 breast,3.58 µM
same,TGI,MCF7 breast,30.2 µM
same,GI50,NCI-H522 lung,1.27 µM
same,TGI,NCI-H522 lung,15 µM
same,GI50,SN12C renal,2.89 µM
same,TGI,SN12C renal,18.1 µM
same,GI50,RXF 393 renal,2.02 µM
same,TGI,RXF 393 renal,5.32 µM
same,GI50,UO-31 renal,3.31 µM
same,TGI,UO-31 renal,9.46 µM
same,GI50,U251 CNS,3.54 µM
same,TGI,U251 CNS,68.9 µM
same,GI50,MALME-3M melanoma,10.5 µM
same,TGI,MALME-3M melanoma,24.4 µM
same,GI50,HOP-62 NSCLC,3.3 µM
same,TGI,HOP-62 NSCLC,45.6 µM
same,GI50,HOP-92 NSCLC,6.58 µM
same,TGI,HOP-92 NSCLC,58.6 µM
same,GI50,SK-MEL-5 melanoma,3.66 µM
same,TGI,SK-MEL-5 melanoma,14.8 µM
same,GI50,MOLT-4 leukemia,3.51 µM
same,TGI,MOLT-4 leukemia,22 µM
same,GI50,NCI-H460 lung,4.08 µM
same,TGI,NCI-H460 lung,15.6 µM
same,GI50,M14 melanoma,8.62 µM
same,TGI,M14 melanoma,25.2 µM
same,GI50,SK-MEL-2 melanoma,2.86 µM
same,TGI,SK-MEL-2 melanoma,9.46 µM
same,GI50,DU-145 prostate,4.02 µM
same,TGI,DU-145 prostate,17.1 µM
same,GI50,LOX IMVI melanoma,4.33 µM
same,TGI,LOX IMVI melanoma,20.9 µM
same,GI50,PC-3 prostate,8.53 µM
same,TGI,PC-3 prostate,60.6 µM
same,GI50,HCT-15 colon,3.41 µM
same,TGI,HCT-15 colon,26.4 µM
same,GI50,BT-549 breast,1.94 µM
same,TGI,BT-549 breast,12.3 µM
same,GI50,SF-268 CNS,5.61 µM
same,TGI,SF-268 CNS,38.8 µM
same,GI50,SF-539 CNS,1.01 µM
same,TGI,SF-539 CNS,5.75 µM
same,GI50,SNB-19 CNS,2.43 µM
same,TGI,SNB-19 CNS,44.6 µM
same,GI50,T-47D breast,2.87 µM
same,TGI,T-47D breast,63.2 µM
same,GI50,HL-60(TB) leukemia,3.69 µM
same,TGI,HL-60(TB) leukemia,19.3 µM
same,GI50,OVCAR-4 ovarian,12.4 µM
same,TGI,OVCAR-4 ovarian,53.4 µM
same,GI50,RPMI-8226 leukemia,5.22 µM
same,TGI,RPMI-8226 leukemia,31.7 µM
same,GI50,786-0 renal,5.02 µM
same,TGI,786-0 renal,47 µM
same,GI50,CCRF-CEM leukemia,2.87 µM
same,TGI,CCRF-CEM leukemia,16.2 µM
same,GI50,MDA-MB-231 breast,11.3 µM
same,TGI,MDA-MB-231 breast,58.4 µM
same,GI50,HCT-116 colon,1.92 µM
same,TGI,HCT-116 colon,10.9 µM
same,GI50,A498 renal,2.09 µM
same,TGI,A498 renal,8.84 µM
same,GI50,TK-10 renal,3.86 µM
same,TGI,TK-10 renal,> 100 µM
